Several values for one entry are separate records, joined by “and”; a condition that tells them apart may be missing. Equal values may be shown once.

Series [1] deals with HepG2 cells. Put plainly: Anti-proliferative potential on liver cancer line. The class given is cell-based. The conditions noted are these: Homo sapiens, data not shown, read-out: IC50, growth inhibition of cancer cells.
Series [2] has as its target T1, SphK1 (Homo sapiens, UniProt Q9NYA1).
T1 construct: His tag; made in house; host or cells: E. coli BL21-Gold (DE3)
As to the kind of experiment: Isothermal titration calorimetry. The class given is binding. Here is the method: Binding affinity of SphK1 to quercetin was determined by using VP-ITC microcalorimeter from MicroCal, Inc (GE, MicroCal, USA). Protein sample was prepared by extensively dialyzing it against Tris buffer (20 mM Tris-HCl, pH 8.0 and 100 mM NaCl). Stock solution of compound was diluted in the last dialyzing buffer to avoid any baseline error. Equal amount of DMSO (1.0% v/v) was added to the protein solution to prevent signal stability problems during ITC measurements. 15 µM SphK1, which was kept in the sample cell with an effective volume of 2 ml, was titrated with 750 µM of compound filled in the titration calorimetry syringe. A programmed titration was performed with a first false injection of 2 µl followed by 24 successive injections of 10 µl ligand each at 300 seconds interval. The temperature of the sample and reference cell was isothermally maintained at 25 °C, and the syringe was stirred at 307 rpm during the experiment. Heat of dilution of compound into buffer solution (no protein) was also measured and subtracted from the protein’s titration data. The binding isotherm obtained was fitted with in-built origin ‘binding site’ model to derive the thermodynamic parameters viz., stoichiometry of binding (n), enthalpy change (ΔH) and association constant (Ka).
A general note: In ITC the heat of successive injections is recorded.

Series [3] concerns A549 cells. As to the kind of experiment: Anti-proliferative potential on lung cancer line. The conditions noted are these: Homo sapiens, data not shown, read-out: IC50, growth inhibition of cancer cells. The series is classed as cell-based.
For series [4], the target named is T1, SphK1. Put plainly: Fluorescence binding studies (Trp quenching, modified Stern-Volmer). Particulars: for Binding constant Ka: fluorescence quenching, 25 °C, 4 µM SphK1; for Kd: from fluorescence binding constant, read-out: Dissociation constant KD. Here is the method:
Fluorescence quenching experiments were carried out on Jasco spectroflourimeter (FP-6200) using 5 mm quartz cuvette. The temperature was maintained at 25 ± 0.1 °C by external thermostated peltier device. Stock solution of ligands was prepared in DMSO and diluted to a working concentration of 50 µM in Tris buffer just prior to taking measurements. Protein solution (4 µM) was titrated with increasing concentrations of ligand and the fluorescence emission spectrum was recorded in the range of 300–400 nm by keeping the excitation wavelength constant at 280 nm. The excitation and emission slit widths were kept at 10 nm. The final spectra were obtained by subtracting with the corresponding blank. For data analysis, fluorescence intensity at λmax was plotted against [ligand, μM] and then modified Stern-Volmer equation (Eq. 1) was used to derive binding parameters viz., binding constant (Ka) and number of binding sites (n) per molecule of protein for ligand-SphK1 system.1 log(F0−F/F)=logKa+nlog[Q]
To validate our docking results, the binding affinity of selected natural compounds with SphK1 was calculated using fluorescence measurements. A number of molecular interactions, including formation of an excited charge-transfer complex, intersystem crossing to the triplet state, molecular rearrangements, and ground-state complex formation between the fluorophore and quencher can lead fluorescence quenching. […] 4 µM of SphK1 was titrated by the successive addition of selected natural compounds from a 1.0 mM stock solution of ligands. The intrinsic fluorescence spectra were then collected in the range of 300–400 nm by keeping the excitation wavelength at 280 nm. The concentration of ligands was varied from 0 to 50 µM to obtain the saturation point.

The test system of series [5] is HEK293 cells.
Series [6] has as its target T1, SphK1. As to the kind of experiment: ATPase inhibition assay (malachite green, BIOMOL Green). The series is classed as biochemical. The conditions noted are these: 2 µM SphK1, 150 µM ATP, 25 °C; read-out: IC50 (50% of ATPase inhibition). Here is the method:
ATPase activity of purified SphK1 was checked by malachite green-based (BIOMOL® Green reagent, Enzo Life sciences) microtitre-plate assay. Fixed (2 µM) amount of protein was incubated with assay buffer (20 mM Tris-HCl, pH 8.0 and 100 mM NaCl) containing 10 mM MgCl2 and increasing concentrations of ATP for 30 minutes at 25 °C. The reaction was terminated by the addition of malachite green reagent followed by incubation for 20 minutes for colour development. The absorbance of each well was measured at 620 nm on a multiplate ELISA reader. Standard phosphate curve was prepared as described by manufacturer’s protocol and used to quantity the amount of free inorganic released from ATP by kinase activity. Thereafter, ATPase inhibition assay for SphK1 was performed in the presence of compounds. Firstly, Protein (2 µM) was pre-incubated with increasing concentrations of ligand at room temperature for 60 minutes in 96-well plate. 10 mM MgCl2 and 150 µM freshly prepared ATP was then added to the reaction mixture and incubated for 30 minutes at 25 °C. To terminate the reaction, BIOMOL® reagent was added and incubated for 20 minutes followed by absorbance measurement at 620 nm. The amount of free inorganic released was determined with the help of standard phosphate curve as described. All the measurements were performed in triplicates.

Where [7] appears, read: ITC, 25 °C, sequential binding, site 1.
Setting [8] is: ITC, 25 °C, sequential binding, site 2.
[9] abbreviates: ITC, 25 °C, sequential binding, site 3.
[10] abbreviates: ITC, 25 °C, single binding site model.

T1 sequence (Q9NYA1 whole entry): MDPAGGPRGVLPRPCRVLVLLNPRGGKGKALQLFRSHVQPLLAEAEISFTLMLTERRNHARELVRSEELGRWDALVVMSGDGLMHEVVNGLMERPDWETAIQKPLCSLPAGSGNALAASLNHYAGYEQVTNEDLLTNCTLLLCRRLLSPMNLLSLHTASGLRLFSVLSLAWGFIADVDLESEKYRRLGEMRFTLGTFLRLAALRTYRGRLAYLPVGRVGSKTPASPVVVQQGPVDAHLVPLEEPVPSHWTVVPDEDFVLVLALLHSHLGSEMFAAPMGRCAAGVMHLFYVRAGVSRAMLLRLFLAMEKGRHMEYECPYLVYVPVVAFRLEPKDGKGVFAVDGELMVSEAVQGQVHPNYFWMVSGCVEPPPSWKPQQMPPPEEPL

A word on the IC50: it is the concentration that inhibits the measured activity by half. On to `O=c1c(O)c(-c2ccc(O)c(O)c2)oc2cc(O)cc(O)c12` [Quercetin, quercetin], for which, in series [1], the IC50 amounted to 49.1 µM. This molecule also had a Kd in series [2] of 125 µM. In series [2] (setting [7]), the “Association constant Ka1” value is recorded as “Ka1 = 5.89 × 10^4 ± 5.0 × 10^3 M^−1”, the “Enthalpy Change ΔH1” value is given as “ΔH1 = −5204 ± 435 cal/mol” and the ΔS1 result is reported as “ΔS1 = 4.37 cal/mol/deg”. Further, the Kd in series [2] (ITC, 25 °C, sequential binding, site 1, read-out: Dissociation Constant KD1) amounted to 16.9 µM. For the same molecule, in series [2] (setting [8]), the “Association constant Ka2” value was “Ka2 = 2.36 × 10^5 ± 8.0 × 10^3 M^−1”, the “Enthalpy Change ΔH2” value is listed as “ΔH2 = −9883 ± 696 cal/mol” and the ΔS2 entry was “ΔS2 = −8.57 cal/mol/deg”. In addition, the Kd in series [2] (ITC, 25 °C, sequential binding, site 2, read-out: Dissociation Constant KD2) stood at 4.2 µM. Moreover, in series [2] (setting [9]), the “Association constant Ka3” value is listed as “Ka3 = 1.06 × 10^4 ± 4.0 × 10^2 M^−1”, the “Enthalpy Change ΔH3” value is “ΔH3 = 3829 ± 2.18 × 10^3 cal/mol” and the ΔS3 result is “ΔS3 = 32.3 cal/mol/deg”. For the same molecule, in series [2] (ITC, 25 °C, sequential binding, site 3, read-out: Dissociation Constant KD3), the Kd was determined as 94.3 µM. For the same molecule, the ΔS4 entry in series [2] (ITC, 25 °C, sequential binding, site 4) is “ΔS4 = −294 cal/mol/deg”. The Kd in series [2] (ITC, 25 °C, sequential binding, site 4, read-out: Dissociation Constant KD4) turned out to be 10.7 µM. Further, the IC50 in series [3] came out at 55.9 µM. For the same molecule, in series [4], the “Binding constant Ka” value was determined as 438000 M⁻¹ and the Kd was determined as 2.28 µM. In series [5], the “Toxicity towards normal counterparts” value was “did not impart any toxicity”. The IC50 in series [6] was ~2.8 µM.
Regarding `COc1cc(CNC(=O)CCCC/C=C/C(C)C)ccc1O` [Capsaicin, capsaicin], in series [2] (setting [10]), the “Association constant Ka” value turned out to be 102000 ± 66200 M⁻¹, the “Enthalpy Change ΔH” value was −1.00 × 10^4 ± 727.6 cal/mol and the ΔS was −10.8 cal/mol/deg. Besides, the Kd in series [2] (ITC, 25 °C, single binding site model, read-out: Dissociation Constant KD) was found to be 9.8 µM. Further, in series [4], the “Binding constant Ka” value was found to be 15300 M⁻¹ and the Kd turned out to be 65.4 µM. In addition, the half-inhibitory concentration (IC50) in series [6] is ~27 µM and 27 µM.

(Values after paper PMC6904568, “Evaluation of binding and inhibition mechanism of dietary phytochemicals with sphingosine kinase 1: Towards targeted anticancer therapy” (Scientific Reports, 2019).)
